From patent US7163957B2, “3-(Cyclopenten-1-yl)-benzyl-or 3-(cyclopenten-1-yl)-heteroarylmethyl-amine derivatives and use thereof as medicines for treating schizophrenia” (Pierre Fabre Medicament, priority 2002, dated 2007) come the findings set out here.

Where a name gives a salt, the structure may show the parent alone. Where only a bound is given, the exact number is not on record here.

For data set [1], the system named is D2 receptors. As to the kind of experiment: Antagonist activity of the D2 receptors in vivo: inhibition of the behavior induced by methylphenidate. The settings on record: Rattus norvegicus, rats, oral route, read-out: Normalization ED50. The text has this:
3—Evaluation of the antagonist activity of the D2 receptors in vivo.

Data set [2] has as its target D2 receptors (Homo sapiens, UniProt P14416). Briefly: Affinity for the D2 receptors, displacement of (3H) YM-09151-2. The settings on record: for Ki: displacement of (3H) YM-09151-2, mean of at least 3 experiments, read-out: D2 pKi (converted). Type of data set: binding. From the text: 1—Measurement of the affinity of the compounds of the invention for the D2 receptors.
The pKi values, (pKi=−log Ki), are given in the form of the mean±SEM of at least 3 experiments.

For data set [3], the system named is catalepsy. As to the kind of experiment: Cataleptigenic effects (catalepsy). The settings on record: rats; for ED50: rat, in vivo, oral route; for cataleptigenic effects (in words): high doses (i.e. 40 mg/kg). Type of data set: in vivo. The text has this: 4—Evaluation of the cataleptigenic effects of the compounds of the invention.
The target of data set [4] is T1, 5-HT1A receptors (Homo sapiens, UniProt P08908).
T1 sequence (P08908 1-422): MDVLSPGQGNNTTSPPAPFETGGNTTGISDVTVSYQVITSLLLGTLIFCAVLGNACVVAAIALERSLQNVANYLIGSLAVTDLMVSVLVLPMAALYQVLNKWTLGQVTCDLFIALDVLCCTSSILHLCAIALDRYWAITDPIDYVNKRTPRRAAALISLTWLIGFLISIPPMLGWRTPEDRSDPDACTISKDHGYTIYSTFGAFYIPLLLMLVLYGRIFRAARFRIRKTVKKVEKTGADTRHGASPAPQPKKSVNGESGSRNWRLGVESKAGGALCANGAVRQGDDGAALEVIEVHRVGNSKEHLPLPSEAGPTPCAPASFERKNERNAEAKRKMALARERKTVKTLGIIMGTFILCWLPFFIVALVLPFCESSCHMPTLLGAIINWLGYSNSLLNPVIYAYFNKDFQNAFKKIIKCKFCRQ
As to the kind of experiment: Affinity for the 5-HT1A receptors, displacement of [3H]8-OH-DPAT. The class given is binding. The following applies: for Ki: displacement of [3H]8-OH-DPAT, mean of at least 3 experiments, read-out: 5-HT1A pKi (converted). How it is done:
2—Measurement of the affinity of the compounds of the invention for the 5-HT1A receptors.
The affinity in vitro of the compounds of the invention for the receptors of the 5-HT1A subtype was determined by measuring the displacement of [^3H]8-OH-DPAT (TRK 850; 160-240 Ci/mmol).
The pKi values, (pKi =−log Ki), are given in the form of the mean±SEM of at least 3 experiments.

D2 receptors (Homo sapiens, UniProt P14416), sequence (P14416 whole entry): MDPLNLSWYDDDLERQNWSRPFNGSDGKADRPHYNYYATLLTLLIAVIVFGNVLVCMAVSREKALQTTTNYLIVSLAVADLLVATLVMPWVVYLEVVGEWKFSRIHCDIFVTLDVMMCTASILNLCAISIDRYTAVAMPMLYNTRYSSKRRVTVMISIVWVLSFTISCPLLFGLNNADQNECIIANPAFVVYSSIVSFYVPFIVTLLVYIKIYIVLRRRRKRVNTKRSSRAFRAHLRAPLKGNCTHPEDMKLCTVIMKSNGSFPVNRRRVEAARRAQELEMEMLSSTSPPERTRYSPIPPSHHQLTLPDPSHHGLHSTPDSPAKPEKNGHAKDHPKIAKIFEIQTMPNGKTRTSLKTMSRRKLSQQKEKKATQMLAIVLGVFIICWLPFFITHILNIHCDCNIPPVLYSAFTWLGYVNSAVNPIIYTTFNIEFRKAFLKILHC

The compound `CC1(C)Cc2cccc(OCCNCc3cccc(C4=CCCC4)c3)c2O1` (as salt: fumarate) [Compound 1a, [2-(2,2-Dimethyl-2,3-dihydrobenzofuran-7-yloxy)ethyl]-(3-cyclopenten-1-ylbenzyl)amine] returned a melting point of 146 °C.
Same read-out and setting: the value for `C1=C(c2cccc(CNCCOc3cccc4c3OC3(CC3)C4)c2)CCC1` (as salt: maleate) [Compound 1f] was 180 °C.
`CC1(C)Cc2cccc(OCCNCc3cccc(C4=CCCC4)c3)c2O1` [Compound 1a, [2-(2,2-Dimethyl-2,3-dihydrobenzofuran-7-yloxy)ethyl]-(3-cyclopenten-1-ylbenzyl)amine]: in data set [1], the ED50 worked out at 1.3 mg/kg. The Ki in data set [2] was 0.316 nM. Further, in data set [3], the median effective dose (ED50) was more than 40 mg/kg and the “cataleptigenic effects (in words)” value is listed as “free of any cataleptigenic effects”. In data set [4], the “affinity for the 5-HT1A receptors (in words)” value is listed as “high affinity” and the Ki was 6.31 nM.
In turn, `C1=C(c2cccc(CNCCOc3cccc4ccoc34)c2)CCC1` (as salt: fumarate) [Compound 1c, [2-(Benzofuran-7-yloxy)ethyl]-(3-cyclopenten-1-ylbenzyl)amine] yielded a melting point of 126 °C.
For `Cc1cc2cccc(OCCNCc3cccc(C4=CCCC4)c3)c2o1` (as salt: fumarate) [Compound 1d, [2-(2-Methylbenzofuran-7-yloxy)ethyl]-(3-cyclopenten-1-ylbenzyl)amine], the melting point amounted to 133 °C.
On the same count and under the same terms, in the case of `CC1(C)Cc2cccc(OCCNCc3cncc(C4=CCCC4)c3)c2O1` (as salt: fumarate) [Compound 1b, [2-(2,2-Dimethyl-2,3-dihydrobenzofuran-7-yl-oxy)ethyl]-(5-cyclopenten-1-ylpyridin-3-ylmethyl)amine] it was 141 °C; in that of `C1=C(c2cccc(CNCCOc3cccc4c3OCC4)c2)CCC1` (as salt: fumarate) [Compound 1e, [2-(2,3-Dihydrobenzofuran-7-yloxy)ethyl]-(3-cyclopenten-1-ylbenzyl)amine], 118 °C.
With `Cc1nc2n(c(=O)c1CCN1CCC(c3noc4cc(F)ccc34)CC1)CCCC2` [Risperidone, risperidone, reference compound], in data set [1], the 50% effective dose (ED50) turned out to be 6.5 mg/kg. In data set [2], the “affinity for the D2 receptors (in words)” value is reported as “good affinity”. In data set [4], the “affinity for the 5-HT1A receptors (in words)” value is given as “low affinity”.
For the compound `CC1(C)Cc2cccc(OCCNCc3cccc(C4=C(F)CCC4)c3)c2O1` (as salt: fumarate) [Compound 1g, [2-(2,2-Dimethyl-2,3-dihydrobenzofuran-7-yl-oxy)ethyl]-[3-(2-fluorocyclopenten-1-yl)benzyl]amine], the melting point is 145 °C.
In the case of `O=C(CCCN1CCC(O)(c2ccc(Cl)cc2)CC1)c1ccc(F)cc1` [haloperidol, reference compound], the ED50 in data set [1] came to 0.46 mg/kg; in data set [3], 0.92 mg/kg. For the same compound, the “affinity for the 5-HT1A receptors (in words)” value in data set [4] is reported as “low affinity”.
In the case of `CNc1cc(OC)c(C(=O)NC2CCN(Cc3ccccc3)C2C)cc1Cl` (stereo not shown) [nemonapride, reference compound], the ED50 in data set [1] worked out at 1.5 mg/kg; in data set [3], 5 mg/kg. In addition, in data set [4], the “affinity for the 5-HT1A receptors (in words)” value is “high affinity”.
Turning to `C1=C(c2cccc(CNCCOc3cccc4c3OC3(CC3)C4)c2)CCC1` [Compound 1f], the ED50 in data set [1] was 0.63 mg/kg; in data set [3] it was more than 40 mg/kg. Also, the Ki was 0.631 nM in data set [2] and 6.31 nM in data set [4]. In addition, in data set [3], the “cataleptigenic effects (in words)” value is “free of any cataleptigenic effects”. For the same compound, the “affinity for the 5-HT1A receptors (in words)” value in data set [4] is listed as “high affinity”.
